Tested on: 354836-022-R-J1-PDC multicell spheroid viability
Assay: Anticancer human tumor 354836-022-R-J1-PDC patient-derived head and neck squamous cell carcinoma cell line growth inhibition [PI3K]
Conditions: for IC50: curve of first compound; for viability, T/C: stronger effect = lower value; active = viability on the fitted dose curve at most 10% of control; inactive = the rest
Description: Combinatorial screen of targeted agents with the PI3K inhibitors inavolisib, alpelisib, duvelisib, and copanlisib in multi-cell type tumor spheroids
A high-throughput screen of multi-cell type tumor spheroids was designed to identify active combinations of targeted small molecules and PI3K pathway inhibitors. Complex spheroids include a stromal component modeled by human endothelial cells (HUVEC) and fibroblasts modeled by human mesenchymal stem cells (MSCs). The concentration ranges selected for each drug and investigational agent were based upon clinically achievable concentrations if the clinical Cmax of the agent was known.
Compounds. The drugs and investigational agents: inavolisib (NSC800729), alpelisib (NSC765974), duvelisib (NSC772469), copanlisib (NSC816437), ipatasertib (NSC767898), afuresertib (NSC778305), talazoparib (NSC767125), sapanisertib (NSC764658), selumetinib (NSC741078), tovorafenib (DAY101, NSC766906), vemurafenib (NSC761431), ravoxertinib (NSC781343), sotorasib (NSC818433), MRTX1133 (NSC 836407), abemaciclib (NSC 768073), palbociclib (NSC758247), venetoclax (NSC 766270), SY5609 (NSC837396), enzalutamide (NSC755605), and darolutamide (NSC825331), were obtained from the National Cancer Institute (NCI) Developmental Therapeutics Program Chemical Repository. The FDA-approved anticancer drug set is available from the NCI Developmental Therapeutics Program. […] The stock solutions were prepared in dimethyl sulfoxide (DMSO, Sigma-Aldrich, St. Louis, MO, cat. D2650) at 800-fold the tested concentration and stored at -70 degrees C prior to their use. All drugs and investigational agents were tested over a range starting from a high concentration at or near the clinical Cmax and decreasing in half-log increments. If the clinical Cmax for an agent had not been determined, the highest concentration tested was 10 microM.
Cell Culture. All cells were maintained in an incubator at 37 degrees C and 5% CO2 with 95% humidity. The PDC lines were cultured according to standard operating procedures established by the NCI PDMR (https://pdmr.cancer.gov/sops/default.htm). All PDCs were thawed and cultured in Matrigel-coated flasks prepared with a working solution of 1X Ham's F-12 nutrient mix, without supplementation (Invitrogen, Waltham, MA, cat. 11765054), 100 U/mL penicillin-streptomycin (Invitrogen, cat. 15140122), and 2.5% Matrigel (Corning Inc., Corning, NY, cat. 354248) for the first three passages. The 354836-022-R-J1-PDC, 475296-252-R-J1-PDC, and 997726-040-R-J2-PDC lines were cultured in 6A media, which includes advanced DMEM/F-12 (Thermo Fisher Scientific, cat. 12634028), 10 mM HEPES (Thermo Fisher Scientific, cat. 15630080), 1X GlutaMAX supplement (Thermo Fisher Scientific, cat. 35050061), 0.1 mg/mL primocin (InvivoGen, San Diego, CA, cat. ant-pm-2), 10% defined fetal bovine serum, heat inactivated (HyClone Laboratories Inc., Logan, UT, cat. SH30070.03HI), 50% L-WRN conditioned media (ATCC, cat. CRL-3276), 1.25 mM N-Acetyl-L-cysteine (Sigma-Aldrich, cat. A9165), 10 mM nicotinamide (Sigma-Aldrich, cat. N0636), 1X B-27 supplement (Thermo Fisher Scientific, cat. 17504044), 1X N-2 supplement (Thermo Fisher Scientific, cat. 17502048), and 10 microM Y-27632 dihydrochloride (Tocris Bioscience, Bristol, United Kingdom, cat. 1254). The 624824-186-R-J2-PDC line was cultured in 6C/Colon 1B media, which includes all 6A media components plus 50 ng/mL human EGF recombinant protein (Thermo Fisher Scientific, cat. PHG0311). […]

[1] = second compound 0.00316 µM, first compound 0.0316 µM
[2] = second compound 0.00316 µM, first compound 0.1 µM
[3] = second compound 0.01 µM, first compound 0.0316 µM
[4] = second compound 0.01 µM, first compound 0.1 µM
[5] = second compound 0.0316 µM, first compound 0.0316 µM
[6] = second compound 0.0316 µM, first compound 0.1 µM
[7] = second compound 0.1 µM, first compound 0.0316 µM
[8] = second compound 0.1 µM, first compound 0.1 µM
[9] = second compound 0.316 µM, first compound 0.0316 µM
[10] = second compound 0.316 µM, first compound 0.1 µM
[11] = second compound 1 µM, first compound 0.0316 µM
[12] = second compound 1 µM, first compound 0.1 µM
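Also: spheroids exposed to agents for seven days before the viability read.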

CC(=O)c1c(C)c2cnc(Nc3ccc(N4CCNCC4)cn3)nc2n(C2CCCC2)c1=O + CC(Nc1ccc2c(c1)OCCn1cc(N3C(=O)OCC3C(F)F)nc1-2)C(N)=O
> 0.1 µM: IC50 (second compound 0.00316 µM) | IC50 (second compound 0.01 µM) | IC50 (second compound 0.0316 µM) | IC50 (second compound 0.1 µM) | IC50 (second compound 0.316 µM) | IC50 (second compound 1 µM)
inactive: viability, T/C (second compound 0.00316 µM, first compound 0.000316 µM) 95.6% | viability, T/C (second compound 0.00316 µM, first compound 0.001 µM) 98% | viability, T/C (second compound 0.00316 µM, first compound 0.00316 µM) 109% | viability, T/C (second compound 0.00316 µM, first compound 0.01 µM) 82.5% | viability, T/C [1] 102% | viability, T/C [2] 98.7% | viability, T/C (second compound 0.01 µM, first compound 0.000316 µM) 99% | viability, T/C (second compound 0.01 µM, first compound 0.001 µM) 94.3% | viability, T/C (second compound 0.01 µM, first compound 0.00316 µM) 102% | viability, T/C (second compound 0.01 µM, first compound 0.01 µM) 90% | viability, T/C [3] 94.8% | viability, T/C [4] 105% | viability, T/C (second compound 0.0316 µM, first compound 0.000316 µM) 85.2% | viability, T/C (second compound 0.0316 µM, first compound 0.001 µM) 109% | viability, T/C (second compound 0.0316 µM, first compound 0.00316 µM) 92.2% | viability, T/C (second compound 0.0316 µM, first compound 0.01 µM) 97.8% | viability, T/C [5] 98.4% | viability, T/C [6] 101% | viability, T/C (second compound 0.1 µM, first compound 0.000316 µM) 80.7% | viability, T/C (second compound 0.1 µM, first compound 0.001 µM) 84.2% | viability, T/C (second compound 0.1 µM, first compound 0.00316 µM) 87% | viability, T/C (second compound 0.1 µM, first compound 0.01 µM) 93% | viability, T/C [7] 96.8% | viability, T/C [8] 80.3% | viability, T/C (second compound 0.316 µM, first compound 0.000316 µM) 65.8% | viability, T/C (second compound 0.316 µM, first compound 0.001 µM) 78.9% | viability, T/C (second compound 0.316 µM, first compound 0.00316 µM) 70.8% | viability, T/C (second compound 0.316 µM, first compound 0.01 µM) 68% | viability, T/C [9] 70.7% | viability, T/C [10] 72.4% | viability, T/C (second compound 1 µM, first compound 0.000316 µM) 65.5% | viability, T/C (second compound 1 µM, first compound 0.001 µM) 60% | viability, T/C (second compound 1 µM, first compound 0.00316 µM) 54.4% | viability, T/C (second compound 1 µM, first compound 0.01 µM) 65.7% | viability, T/C [11] 62.7% | viability, T/C [12] 63.6%

CNC(=O)c1ccc(N2C(=S)N(c3ccc(C#N)c(C(F)(F)F)c3)C(=O)C2(C)C)cc1F + CC(Nc1ccc2c(c1)OCCn1cc(N3C(=O)OCC3C(F)F)nc1-2)C(N)=O
> 10 µM: IC50 (second compound 0.00316 µM) | IC50 (second compound 0.01 µM) | IC50 (second compound 0.0316 µM) | IC50 (second compound 0.1 µM) | IC50 (second compound 0.316 µM) | IC50 (second compound 1 µM)
inactive: viability, T/C [1] 92.3% | viability, T/C [2] 99% | viability, T/C (second compound 0.00316 µM, first compound 0.316 µM) 104% | viability, T/C (second compound 0.00316 µM, first compound 1 µM) 82.8% | viability, T/C (second compound 0.00316 µM, first compound 3.16 µM) 97.8% | viability, T/C (second compound 0.00316 µM, first compound 10 µM) 84.7% | viability, T/C [3] 120% | viability, T/C [4] 88% | viability, T/C (second compound 0.01 µM, first compound 0.316 µM) 94.3% | viability, T/C (second compound 0.01 µM, first compound 1 µM) 101% | viability, T/C (second compound 0.01 µM, first compound 3.16 µM) 93.5% | viability, T/C (second compound 0.01 µM, first compound 10 µM) 84.6% | viability, T/C [5] 92% | viability, T/C [6] 96.7% | viability, T/C (second compound 0.0316 µM, first compound 0.316 µM) 83.1% | viability, T/C (second compound 0.0316 µM, first compound 1 µM) 89.4% | viability, T/C (second compound 0.0316 µM, first compound 3.16 µM) 87.9% | viability, T/C (second compound 0.0316 µM, first compound 10 µM) 88.2% | viability, T/C [7] 90.8% | viability, T/C [8] 95.2% | viability, T/C (second compound 0.1 µM, first compound 0.316 µM) 94.2% | viability, T/C (second compound 0.1 µM, first compound 1 µM) 91% | viability, T/C (second compound 0.1 µM, first compound 3.16 µM) 88.7% | viability, T/C (second compound 0.1 µM, first compound 10 µM) 85.7% | viability, T/C [9] 62.9% | viability, T/C [10] 79.9% | viability, T/C (second compound 0.316 µM, first compound 0.316 µM) 74.1% | viability, T/C (second compound 0.316 µM, first compound 1 µM) 67.6% | viability, T/C (second compound 0.316 µM, first compound 3.16 µM) 77.6% | viability, T/C (second compound 0.316 µM, first compound 10 µM) 67.9% | viability, T/C [11] 63.5% | viability, T/C [12] 57.7% | viability, T/C (second compound 1 µM, first compound 0.316 µM) 64.3% | viability, T/C (second compound 1 µM, first compound 1 µM) 58.4% | viability, T/C (second compound 1 µM, first compound 3.16 µM) 54.3% | viability, T/C (second compound 1 µM, first compound 10 µM) 53.4%

— PubChem BioAssay AID1963981 (Molecular Pharmacology Branch, DTP, NCI, 2024)
